# Experimental data: patent US20030215817A1, “Modulation of gene expression in formation of fatty atherosclerotic lesions” (priority 2003, published 2003)
# Structures can show the parent of a compound that is named as a salt.
# Tests used:
# Assay type in all cases: in vivo, rabbit
# [1] = system: REC1_8 (MspI CCCG 243) mRNA; assay: TOGA analysis, REC1_8
# Protocol: (§1) To perform the studies, New Zealand male rabbits weighing 2.0-2.5 kg (Charles River, Calco, Italy) were used. The rabbits were divided into three groups and maintained in identical experimental conditions: (1) control group (n=15); rabbits fed a cholesterol-rich diet; (2) lercanidipine-treated group (n=15); rabbits fed a cholesterol-rich diet and also treated with lercanidipine (3 mg/kg/week); and (3) (R)-lercanidipine-treated group (n=5); rabbits fed a cholesterol-rich diet and also treated with the (R)-enantiomer of lercanidipine (3 mg/kg/week). After a 2 week period of subcutaneous, once a week, pretreatment with 3 mg/kg/week of lercanidipine or (R)-lercanidipine, the rabbits received a daily cholesterol supplement for up to 8 weeks or 2 weeks, respectively. In the following examples, use of the term “lercanidipine” refers to the racemic mixture of lercanidipine hydrochloride, whereas “(R)-lercanidipine” refers to the (R)-enantiomer of lercanidipine hydrochloride.
# (§2) The mRNA from the above-described groups was isolated from aorta at different time points, resulting in the following mRNA samples: (1) Day 0 Control=no administered cholesterol, no lercanidipine; (2) Day 0+lercanidipine=no administered cholesterol, treatment with lercanipidine (2 weeks; 3 mg/kg/week); (3) Day 14 Control=cholesterol diet for two weeks, no lercanidipine; (4) Day 14+lercanidipine=cholesterol diet for two weeks, treatment with lercanidipine (four weeks; 3 mg/kg/week); (5) Week 8 Control=cholesterol diet for 8 weeks, no lercanidipine; and (6) Week 8+lercanidipine=cholesterol diet for 8 weeks, treatment with lercanidipine (10 weeks; 3 mg/kg/week). In addition, Day 14+(R)-lercanidipine mRNA samples were prepared from rabbits given a cholesterol diet for two weeks and treated with 3 mg/kg/week (R)-lercanidipine for four weeks.
# (§3) Aorta mRNAs were prepared in the following manner. First, the aortas from each experimental group were retrieved and shredded using a polytron homogenizer. The samples were further homogenized using a teflon pestle, after which the cellular debris, nuclei, and blood cells were pelleted by centrifugation. The supernatants were extracted twice with phenol-chloroform-isoamyl alcohol and once with chloroform-isoamyl alcohol. RNA was then precipitated from the aqueous phase with ethanol. The poly A+ mRNA was prepared using standard methods of polyA selection known in the art (Schriber et al., J. Mol. Biol., 142:93-116 (1980)).
# (§4) The isolated mRNA was analyzed using a method of simultaneous sequence-specific identification of mRNAs known as TOGA, described in U.S. Pat. No. 5,459,037 and U.S. Pat. No. 5,807,680, hereby incorporated herein by reference. In a preferred embodiment, the TOGA method further comprised an additional PCR step performed using a mixture of four 5′ PCR primers and cDNA templates prepared from a population of antisense cRNAs. A final PCR step that used a mixture of 256 5′ PCR primers produced PCR products that were cDNA fragments that corresponded to the 3′-region of the starting mRNA population. The produced PCR products were then identified by: (a) the initial 5′ sequence comprising the sequence remainder of the recognition site of the restriction endonuclease used to cut and isolate the 3′ region plus the sequence of the preferably four parsing bases immediately 3′ to the remainder of the recognition site, preferably the sequence of the entire fragment; and (b) the length of the fragment. […]
# [2] = system: REC1_6 (MspI ATCC 176) mRNA, ferritin light chain subunit; assay: TOGA analysis, REC1_6
# Protocol: as §1, §2, §3, §4
# [3] = system: REC1_21 (TTCC 165) mRNA, elastin gene; assay: TOGA analysis, REC1_21
# Protocol: as §1, §2, §3, §4
# REC1_16 (TCGG 195) mRNA = assay: TOGA analysis, REC1_16
# Protocol: as §1, §2, §3, §4
# [4] = system: REC1_3 (MspI ACGG 162) mRNA; assay: TOGA analysis, REC1_3
# Protocol: as §1, §2, §3, §4
# [5] = system: REC1_12 (GCCC 232) mRNA, alpha smooth muscle actin; assay: TOGA analysis, REC1_12
# Protocol: as §1, §2, §3, §4
# REC1_5 (AGTG 184) mRNA = assay: TOGA analysis, REC1_5
# Protocol: as §1, §2, §3, §4
# [6] = system: REC1_13 (MspI GCCC 216) mRNA; assay: TOGA analysis, REC1_13
# Protocol: as §1, §2, §3, §4
# [7] = system: REC1_20 (TTAC 210) mRNA, phosphofructo-1-kinase C isozyme; assay: TOGA analysis, REC1_20
# Protocol: as §1, §2, §3, §4
# REC1_17 (TCGT 199) mRNA = assay: TOGA analysis, REC1_17
# Protocol: as §1, §2, §3, §4
# REC1_19 (TGTT 393) mRNA = assay: TOGA analysis, REC1_19
# Protocol: as §1, §2, §3, §4
# [8] = system: REC1_36 (digital address TTAG 155) mRNA; assay: TOGA analysis, REC1_36
# Protocol: as §1, §2, §3
# The isolated mRNA was analyzed using a method of simultaneous sequence-specific identification of mRNAs known as TOGA, described in U.S. Pat. No. 5,459,037 and U.S. Pat. No. 5,807,680, hereby incorporated herein by reference. In a preferred embodiment, the TOGA method further comprised an additional PCR step performed using a mixture of four 5′ PCR primers and cDNA templates prepared from a population of antisense cRNAs. A final PCR step that used a mixture of 256 5′ PCR primers produced PCR products that were cDNA fragments that corresponded to the 3′-region of the starting mRNA population. The produced PCR products were then identified by: (a) the initial 5′ sequence comprising the sequence remainder of the recognition site of the restriction endonuclease used to cut and isolate the 3′ region plus the sequence of the preferably four parsing bases immediately 3′ to the remainder of the recognition site, preferably the sequence of the entire fragment; and (b) the length of the fragment. These two parameters, sequence and fragment length, were used to compare the obtained PCR products to a database of known polynucleotide sequences. Since the length of the obtained PCR products includes known vector sequences at the 5′ and 3′ ends of the insert, the sequence of the insert provided in the sequence listing is shorter than the fragment length that forms part of the digital address.
# The method yields Digital Sequence Tags (DSTs), that is, polynucleotides that are expressed sequence tags of the 3′ end of mRNAs. […]
# [9] = TOGA, hypercholesterolemic plus lercanidipine racemate, eight weeks, H2 (normocholesterolemic)=1.0
smiles,measurement,setting,value
"COC(=O)C1=C(C)NC(C)=C(C(=O)OC(C)(C)CN(C)CCC(c2ccccc2)c2ccccc2)C1c1cccc([N+](=O)[O-])c1 (racemic) [lercanidipine, lercanidipine hydrochloride]","level of gene expression, 8 Week hypercholesterol + Lercanidipine","[1]; REC1_8 CCCG 243, rabbit aorta, 8 weeks cholesterol",1136
same,"level of gene expression, 14 Day hypercholesterol + Lercanidipine","[1]; REC1_8 CCCG 243, rabbit aorta, 14 days cholesterol",373
same,"level of gene expression, Normal + Lercanidipine","[1]; REC1_8 CCCG 243, rabbit aorta, no cholesterol",163
same,"Relative Abundance Rec1_8, TOGA, F",[1]; [9],13.1
same,"level of gene expression (TOGA), 8 Week hypercholesterol + Lercanidipine","[2]; REC1_6, ATCC 176, rabbit aorta, 8 weeks cholesterol + lercanidipine",1302
same,"level of gene expression (TOGA), 14 Day hypercholesterol + Lercanidipine","[2]; REC1_6, ATCC 176, rabbit aorta, 14 days cholesterol + lercanidipine",399
same,"level of gene expression (TOGA), Normal + Lercanidipine","[2]; REC1_6, ATCC 176, rabbit aorta, no cholesterol, lercanidipine",120
same,"Relative Abundance Rec1_6, TOGA, F",[2]; [9],8.8
same,"level of gene expression, 8 Week hypercholesterol + Lercanidipine","[3]; REC1_21 TTCC 165, rabbit aorta, cholesterol 8 weeks",486
same,"level of gene expression, 14 Day hypercholesterol + Lercanidipine","[3]; REC1_21 TTCC 165, rabbit aorta, cholesterol 14 days",1507
same,"level of gene expression, Normal + Lercanidipine","[3]; REC1_21 TTCC 165, rabbit aorta, no cholesterol",2064
same,"Relative Abundance Rec1_21, TOGA, F",[3]; [9],0.2
same,"level of gene expression (TOGA), 8 Week hypercholesterol + Lercanidipine","REC1_16 (TCGG 195) mRNA; REC1_16 TCGG 195, rabbit aorta, 8 weeks cholesterol, lercanidipine",530
same,"level of gene expression (TOGA), 14 Day hypercholesterol + Lercanidipine","REC1_16 (TCGG 195) mRNA; REC1_16 TCGG 195, rabbit aorta, 14 days cholesterol, lercanidipine",1052
same,"level of gene expression (TOGA), Normal + Lercanidipine","REC1_16 (TCGG 195) mRNA; REC1_16 TCGG 195, rabbit aorta, no cholesterol, lercanidipine",2028
same,"Relative Abundance Rec1_16, TOGA, F",REC1_16 (TCGG 195) mRNA; [9],0.2
same,"level of gene expression (TOGA), 8 Week hypercholesterol + Lercanidipine","[4]; REC1_3, ACGG 162, rabbit aorta, 8 weeks cholesterol + lercanidipine",65
same,"level of gene expression (TOGA), 14 Day hypercholesterol + Lercanidipine","[4]; REC1_3, ACGG 162, rabbit aorta, 14 days cholesterol + lercanidipine",68
same,"level of gene expression (TOGA), Normal + Lercanidipine","[4]; REC1_3, ACGG 162, rabbit aorta, no cholesterol, lercanidipine",54
same,"Relative Abundance Rec1_3, TOGA, F",[4]; [9],0.8
same,"level of gene expression, 8 Week hypercholesterol + Lercanidipine","[5]; REC1_12 GCCC 232, rabbit aorta, 8 weeks cholesterol",622
same,"level of gene expression, 14 Day hypercholesterol + Lercanidipine","[5]; REC1_12 GCCC 232, rabbit aorta, 14 days cholesterol",5657
same,"level of gene expression, Normal + Lercanidipine","[5]; REC1_12 GCCC 232, rabbit aorta, no cholesterol",4929
same,"Relative Abundance Rec1_12, TOGA, F",[5]; [9],0.1
same,"level of gene expression (TOGA), 8 Week hypercholesterol + Lercanidipine","REC1_5 (AGTG 184) mRNA; REC1_5, AGTG 184, rabbit aorta, 8 weeks cholesterol + lercanidipine",188
same,"level of gene expression (TOGA), 14 Day hypercholesterol + Lercanidipine","REC1_5 (AGTG 184) mRNA; REC1_5, AGTG 184, rabbit aorta, 14 days cholesterol + lercanidipine",699
same,"level of gene expression (TOGA), Normal + Lercanidipine","REC1_5 (AGTG 184) mRNA; REC1_5, AGTG 184, rabbit aorta, no cholesterol, lercanidipine",1034
same,"Relative Abundance Rec1_5, TOGA, F",REC1_5 (AGTG 184) mRNA; [9],0.2
same,"level of gene expression, 8 Week hypercholesterol + Lercanidipine","[6]; REC1_13 GCCC 216, rabbit aorta, 8 weeks cholesterol",4186
same,"level of gene expression, 14 Day hypercholesterol + Lercanidipine","[6]; REC1_13 GCCC 216, rabbit aorta, 14 days cholesterol",542
same,"level of gene expression, Normal + Lercanidipine","[6]; REC1_13 GCCC 216, rabbit aorta, no cholesterol",575
same,"Relative Abundance Rec1_13, TOGA, F",[6]; [9],5.9
same,"level of gene expression, 8 Week hypercholesterol + Lercanidipine","[7]; REC1_20 TTAC 210, rabbit aorta, cholesterol 8 weeks",260
same,"level of gene expression, 14 Day hypercholesterol + Lercanidipine","[7]; REC1_20 TTAC 210, rabbit aorta, cholesterol 14 days",348
same,"level of gene expression, Normal + Lercanidipine","[7]; REC1_20 TTAC 210, rabbit aorta, no cholesterol",607
same,"Relative Abundance Rec1_20, TOGA, F",[7]; [9],0.3
same,"level of gene expression (TOGA), 8 Week hypercholesterol + Lercanidipine","REC1_17 (TCGT 199) mRNA; REC1_17 TCGT 199, rabbit aorta, 8 weeks cholesterol, lercanidipine",262
same,"level of gene expression (TOGA), 14 Day hypercholesterol + Lercanidipine","REC1_17 (TCGT 199) mRNA; REC1_17 TCGT 199, rabbit aorta, 14 days cholesterol, lercanidipine",713
same,"level of gene expression (TOGA), Normal + Lercanidipine","REC1_17 (TCGT 199) mRNA; REC1_17 TCGT 199, rabbit aorta, no cholesterol, lercanidipine",1434
same,"Relative Abundance Rec1_17, TOGA, F",REC1_17 (TCGT 199) mRNA; [9],0.15
same,"level of gene expression, 8 Week hypercholesterol + Lercanidipine","REC1_19 (TGTT 393) mRNA; REC1_19 TGTT 393, rabbit aorta, cholesterol 8 weeks",130
same,"level of gene expression, 14 Day hypercholesterol + Lercanidipine","REC1_19 (TGTT 393) mRNA; REC1_19 TGTT 393, rabbit aorta, cholesterol 14 days",373
same,"level of gene expression, Normal + Lercanidipine","REC1_19 (TGTT 393) mRNA; REC1_19 TGTT 393, rabbit aorta, no cholesterol",569
same,"Relative Abundance Rec1_19, TOGA, F",REC1_19 (TGTT 393) mRNA; [9],0.2
same,"level of gene expression, 8 Week hypercholesterol + Lercanidipine","[8]; REC1_36 TTAG 155, rabbit aorta, cholesterol 8 weeks",400
same,"level of gene expression, 14 Day hypercholesterol + Lercanidipine","[8]; REC1_36 TTAG 155, rabbit aorta, cholesterol 14 days",683
same,"level of gene expression, Normal + Lercanidipine","[8]; REC1_36 TTAG 155, rabbit aorta, no cholesterol",186
same,"Relative Abundance Rec1_36, TOGA, F",[8]; [9],0.5
same,level of gene expression of REC1_36 (TOGA),"[8]; aorta at day 14 of cholesterol administration, 3 mg/kg/week for 4 weeks",683
same,level of gene expression of REC1_36 (TOGA),"[8]; aorta at week 8 of cholesterol administration, 3 mg/kg/week for 10 weeks",400
